Laboratory results from patent US20160175412A1, “PREVENTION OF TYPE 1 DIABETES BY TREG VACCINATION WITH AN INSULIN MIMETOPE” (DANA-FARBER CANCER INSTITUTE, INC., priority 2010, published 2016).
One block for each compound: values may come before it. Where no end group is shown, it is not given here.

Legend:
[1] = test system: HA(107-119) TCR transgenic Foxp3GFP-reporter T cells; test: in vivo HA-specific Treg conversion, congenic adoptive-transfer system; set-up: species or system mouse; details: injection of mTOR-inhibitor
Protocol: (b) In vivo conversion of naïve CD4+CD25-T cells expressing a transgenic TCR of interest into Treg cells using a congenic transfer system. HA(107-119)TCR transgenic CD4+/Foxp3-/GFP Thy1.1+ cells are transferred iv into a host such as a Balb/c thy1.2+ mouse. A to single dose of a covalent conjugate of […] fusion antibody is administered ip. Analysis of Foxp3 expression in CD4-enriched Thy1.1+ spleenocytes and lymph nodes is conducted after 14 days flow cytometrically.
For the exploitation of antigen-specific Treg induction to interfere with unwanted immunity as diabetes the inventors performed optimization studies in order to achieve stable de novo differentiation of naive T cells into Tregs in sufficient numbers. Therefore we aimed at using combinations of compounds that enhance conversion, selectively expand the generated Tregs and allow for maintenance of the Treg phenotype. […] To induce rapid expansion of these Tregs the inventors injected the mice with IL-2 mixed with an optimized amount of a particular IL-2 monoclonal antibody (IL-2/IL-2 ab complexes) for a short period of 3 days at the end of the conversion period. […] Moreover, these Tregs were stable and persisted over a period of 4 months, which is an important feature as it allows for prospective induction to suppress unwanted immune responses.

IAu = target: T1, IAu (Mus musculus, UniProt P06344+P14438); details: presented by IAu; cited from earlier work
T1 sequence (P14438 1-227): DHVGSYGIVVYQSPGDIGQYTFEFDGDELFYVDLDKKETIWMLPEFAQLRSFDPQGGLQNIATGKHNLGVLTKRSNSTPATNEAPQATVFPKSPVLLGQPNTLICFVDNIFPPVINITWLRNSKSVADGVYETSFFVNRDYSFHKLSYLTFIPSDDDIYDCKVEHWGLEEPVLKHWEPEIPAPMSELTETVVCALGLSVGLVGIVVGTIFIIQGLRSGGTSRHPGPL
T1 sequence (P06344 28-263): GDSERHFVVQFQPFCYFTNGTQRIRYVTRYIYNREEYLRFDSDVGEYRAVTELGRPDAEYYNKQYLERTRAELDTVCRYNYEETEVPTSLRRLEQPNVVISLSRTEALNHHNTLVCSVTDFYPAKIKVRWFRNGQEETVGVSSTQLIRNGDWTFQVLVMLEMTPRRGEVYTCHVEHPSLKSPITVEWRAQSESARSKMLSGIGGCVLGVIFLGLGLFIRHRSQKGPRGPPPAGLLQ

IAg^7 [2] = test: peptide binding to MHC class II IAg7; set-up: species or system mouse; details: MHC class II IAg^7
Excerpt: The natural Insulin B:9-23 peptide is known to be associated with Type I diabetes. This peptide binds with poor affinity to IAg^7 in multiple binding registers.
Chromogranin A was recently identified as the antigenic source of the highly pathogenic BDC2.5 T cell clone associated with Type I diabetes. WE14 is naturally processed from Chromogranin A by a furin-like protease. […] Studies have shown that this epitope only partially fills the peptide binding groove.
(§1) The inventors performed similar protocols of antigen-specific Treg conversion studies to prevent the development of spontaneous diabetes in NOD mice by injecting DEC205 fusion antibodies that contain the beta chain of insulin. […] The inventors hypothesized that weak epitopes may fail to induce efficient Treg conversion, and we initiated studies using Insulin B:9-23 TCR transgenic mice and identified in T cell proliferation assays insulin mimetopes that stimulate better than the Insulin B:9-23 peptide itself because of an increased binding capacity to MHC class II IAg^7, compared to the aforementioned Insulin B:9-23 peptide. In fact such mimetopes achieved better conversion of naive T cells expressing the transgenic TCR. […]

NOD InsB:9-23 Tg T cells = test: thymidine incorporation T cell proliferation assay; type: cell-based, mouse; details: Insulin B:9-23 TCR transgenic T cells
Excerpt: A key feature of the adaptive immune response is the ability of antigen-specific T cells to rapidly proliferate following antigenic-stimulation. Assays to assess the proliferative activity of antigen-specific T cells are a core tool to allow for evaluation of TCR- and MHC-binding properties based on the growth rate of the T cell populations after stimulation with a defined amount of antigen. A historically established assay is the detection of tritiated thymidine ^3H uptake. Therefore CD4+ T-cells from Rag def. NOD mice expressing a transgenic TCR for the a peptide of interest (e.g., Insulin B 9:23 peptide) are isolated by the use of a magnetic bead separation approach. Purified CD11^+DCs from normal NOD mice are used as antigen-presenting cells and irradiated. To induce proliferation of antigen-specific CD4^+ T cells, co-cultures are set up with naïve Insulin-specific CD4^+ T cells in 200 μl RPMI1640 medium supplemented with 10% (vol/vol) FCS in 96-well round-bottomed plates. Soluble peptides (e.g., natural InsulinB9:23 peptide) or mimetopes (e.g., Insulin mimetopes) are added to the cultures in various concentration (10 μg/ml to 0.01 μg/ml). Analysis of proliferation of antigen-specific T cells is performed by incorporation of ^3H-thymidine added for the last 12 hours of a 70 hours culture period followed by scintillation counting. […]

[3] = test system: T cells with a specific transgenic TCR for the K^d54-68 peptide; details: cited from earlier work
BDC2.5 T cells = details: cited from earlier work
IAg^7 [4] = details: cited from earlier work
NOD mice = test: prevention of spontaneous diabetes in NOD mice; type: in vivo, mouse; details: injection into young NOD mice
Excerpt: The inventors have been successful in inducing HY-specific Treg from naIve T cells in wt female B6 mice that were infused with HY-peptide and visualized with HY-peptide, class II tetramers (1). However, a similar approach to prevent diabetes in NOD mice by injecting insulin B:9-23 peptide into young NOD mice failed.
as §1, with “TCR. The inventors then studied the impact of these insulin-derived mimetopes in young NOD mice on diabetes development via subimmunogenic peptide delivery using either newly designed DEC205 peptide fusion antibodies (see description below) or peptide-infusing mini-osmotic pumps.” for “TCR.”

Compound: CO[C@H]1C[C@@H]2CC[C@@H](C)[C@@](O)(O2)C(=O)C(=O)N2CCCC[C@H]2C(=O)O[C@H]([C@H](C)C[C@@H]2CC[C@@H](OCCO)[C@H](OC)C2)CC(=O)[C@H](C)/C=C(\C)[C@@H](O)[C@@H](OC)C(=O)[C@H](C)C[C@H](C)/C=C/C=C/C=C/1C [Everolimus]
frequency of newly generated HA-specific Foxp3+ Tregs [1]: substantially increases

Compound: Act-11 MBP: SEQ ID NO: 8, Ac-ASQKRPSQRHG; acetylated N-terminal myelin basic protein epitope
epitope strength (IAu): weak epitope

MHC binding compared with natural Insulin B:9-23 peptide (IAg^7 [2]): enhanced MHC binding
Compound: InsMim3 peptide mimetope: SEQ ID NO: 2, VEALYLVCGEEG; insulin mimetope, p9 Arginine exchanged to Glutamic acid (InsMim3 peptide mimetope)
stimulation of T cells compared with natural Insulin B:9-23 peptide (NOD InsB:9-23 Tg T cells): better stimulation of T cells

Compound: K^d54-68 peptide: SEQ ID NO: 6, QEGPEYWEEQTQRAK; MHC class I derived processed peptide presented by IAb (Kd 54-68 peptide)
agonist strength ([3]; MHC-derived transplantation antigen): weak agonist
proliferation of specific TCR transgenic T cells ([3]; dendritic cells pulsed with peptide): not able to stimulate the proliferation

Compound: WE14: SEQ ID NO: 4, WSRMDQLAKELTAE; naturally processed from Chromogranin A (WE14 peptide)
stimulation of BDC2.5 T cells (BDC2.5 T cells): poor stimulation
binding to IAg^7 (MHC-binding) (IAg^7 [4]): weakly

Compound: natural Insulin B:9-23 peptide: SEQ ID NO: 1, SHLVEALYLVCGERG; natural peptide associated with Type I diabetes (Insulin B peptide)
prevention of diabetes (NOD mice): failed
binding to IAg^7 (MHC-binding) (IAg^7 [4]): poor affinity

Compound: pS3 peptide: SEQ ID NO: 5, RLGLWVRME; strong stimulating mimetope of WE14 (pS3 peptide mimetope)
stimulation of BDC2.5 T cells (BDC2.5 T cells): strong stimulating mimetope
binding to IAg^7 (MHC-binding) (IAg^7 [4]): improved MHC-binding
